Source: ChEMBL document CHEMBL1138025, “Nocathiacin I analogues: synthesis, in vitro and in vivo biological activity of novel semi-synthetic thiazolyl peptide antibiotics” (Bioorg Med Chem Lett, 2004)
≈ marks a conversion by molar mass, not a printed value.

Assays:
[1] = test system: Enterococcus faecalis; test: In vitro antibacterial activity against methicillin-sensitive Enterococcus faecalis A20688; type: functional
[2] = test system: Streptococcus pneumoniae; test: In vitro antibacterial activity against penicillin-resistant Streptococcus pneumoniae A28272; type: functional
[3] = test system: Staphylococcus aureus; test: In vitro antibacterial activity against methicillin-sensitive Staphylococcus aureus A15090; type: functional
[4] = Equilibrium water solubility at pH 2.7; type: physicochemical
[5] = test system: Mus musculus; test: In vivo efficacy (PD50) against lethal Staphylococcus aureus systemic infection model in mice; type: functional; conditions: read-out: PD50
[6] = Equilibrium water solubility at pH 3.9; type: physicochemical
[7] = Equilibrium water solubility at pH 3.3; type: physicochemical
[8] = Equilibrium water solubility at pH 2.9; type: physicochemical
[9] = Equilibrium water solubility at pH 3.2; type: physicochemical
[10] = Equilibrium water solubility at pH 3.4; type: physicochemical
[11] = Equilibrium water solubility at pH 2.8; type: physicochemical

CO/C(C)=C1/NC(=O)[C@H]([C@@H](C)O)NC(=O)c2csc(n2)-c2cc(O)c(-c3nc(C(=O)NC(CN4CCN(C(C)=O)CC4)C(N)=O)cs3)nc2-c2csc(n2)[C@@H]2COC(=O)c3c4c5c(cccc5n3O)COC(=O)[C@@H](O[C@H]3C[C@](C)(O)[C@H](N(C)C)[C@H](C)O3)[C@@H](OC4)[C@H](NC(=O)c3csc1n3)c1nc(cs1)C(=O)N2 (stereo not given in full)
MIC [1]: 2 µg/mL (≈ 1.28 µM) | MIC [2]: 0.03 µg/mL (≈ 0.0192 µM) | MIC [3]: 0.5 µg/mL (≈ 0.319 µM) | solubility thermodynamic [4]: > 2400 µg/mL | ED50 [5]: 5 mg/kg

CO/C(C)=C1/NC(=O)[C@H]([C@@H](C)O)NC(=O)c2csc(n2)-c2cc(O)c(-c3nc(C(=O)NC(CN(C)CCCn4ccnc4)C(N)=O)cs3)nc2-c2csc(n2)[C@@H]2COC(=O)c3c4c5c(cccc5n3O)COC(=O)[C@@H](O[C@H]3C[C@](C)(O)[C@H](N(C)C)[C@H](C)O3)[C@@H](OC4)[C@H](NC(=O)c3csc1n3)c1nc(cs1)C(=O)N2 (stereo not given in full)
MIC [1]: 0.12 µg/mL (≈ 0.0761 µM) | solubility thermodynamic [6]: > 10600 µg/mL | MIC [2]: 0.01 µg/mL (≈ 0.00634 µM) | MIC [3]: 0.12 µg/mL (≈ 0.0761 µM) | ED50 [5]: 5 mg/kg

CO/C(C)=C1/NC(=O)[C@H]([C@@H](C)O)NC(=O)c2csc(n2)-c2cc(O)c(-c3nc(C(=O)NC(CN4CCN(CC(=O)O)CC4)C(N)=O)cs3)nc2-c2csc(n2)[C@@H]2COC(=O)c3c4c5c(cccc5n3O)COC(=O)[C@@H](O[C@H]3C[C@](C)(O)[C@H](N(C)C)[C@H](C)O3)[C@@H](OC4)[C@H](NC(=O)c3csc1n3)c1nc(cs1)C(=O)N2 (stereo not given in full)
MIC [1]: 1 µg/mL (≈ 0.632 µM) | MIC [2]: 0.03 µg/mL (≈ 0.019 µM) | MIC [3]: 1 µg/mL (≈ 0.632 µM) | solubility thermodynamic [7]: > 2600 µg/mL | ED50 [5]: > 10 mg/kg

CO/C(C)=C1/NC(=O)[C@H]([C@@H](C)O)NC(=O)c2csc(n2)-c2cc(O)c(-c3nc(C(=O)NC(CN(CCO)CCO)C(N)=O)cs3)nc2-c2csc(n2)[C@@H]2COC(=O)c3c4c5c(cccc5n3O)COC(=O)[C@@H](O[C@H]3C[C@](C)(O)[C@H](N(C)C)[C@H](C)O3)[C@@H](OC4)[C@H](NC(=O)c3csc1n3)c1nc(cs1)C(=O)N2 (stereo not given in full)
MIC [1]: 0.25 µg/mL (≈ 0.162 µM) | MIC [2]: 0.01 µg/mL (≈ 0.00648 µM) | MIC [3]: 0.12 µg/mL (≈ 0.0778 µM) | solubility thermodynamic [8]: > 1700 µg/mL | ED50 [5]: 5 mg/kg

CO/C(C)=C1/NC(=O)[C@H]([C@@H](C)O)NC(=O)c2csc(n2)-c2cc(O)c(-c3nc(C(=O)NC(CNCCOCCOCCO)C(N)=O)cs3)nc2-c2csc(n2)[C@@H]2COC(=O)c3c4c5c(cccc5n3O)COC(=O)[C@@H](O[C@H]3C[C@](C)(O)[C@H](N(C)C)[C@H](C)O3)[C@@H](OC4)[C@H](NC(=O)c3csc1n3)c1nc(cs1)C(=O)N2 (stereo not given in full)
MIC [1]: 0.5 µg/mL (≈ 0.315 µM) | MIC [2]: 0.06 µg/mL (≈ 0.0378 µM) | MIC [3]: 0.25 µg/mL (≈ 0.158 µM) | solubility thermodynamic [7]: > 3100 µg/mL | ED50 [5]: 4.6 mg/kg

CO/C(C)=C1/NC(=O)[C@H]([C@@H](C)O)NC(=O)c2csc(n2)-c2cc(O)c(-c3nc(C(=O)NC(CNCCOCCOCCOCCN)C(N)=O)cs3)nc2-c2csc(n2)[C@@H]2COC(=O)c3c4c5c(cccc5n3O)COC(=O)[C@@H](O[C@H]3C[C@](C)(O)[C@H](N(C)C)[C@H](C)O3)[C@@H](OC4)[C@H](NC(=O)c3csc1n3)c1nc(cs1)C(=O)N2 (stereo not given in full)
solubility thermodynamic [9]: > 2800 µg/mL | MIC [1]: 1 µg/mL (≈ 0.614 µM) | MIC [2]: 0.25 µg/mL (≈ 0.153 µM) | MIC [3]: 1 µg/mL (≈ 0.614 µM) | ED50 [5]: > 10 mg/kg

CO/C(C)=C1/NC(=O)[C@H]([C@@H](C)O)NC(=O)c2csc(n2)-c2cc(O)c(-c3nc(C(=O)NC(CN4CCN(C)CC4)C(N)=O)cs3)nc2-c2csc(n2)[C@@H]2COC(=O)c3c4c5c(cccc5n3O)COC(=O)[C@@H](O[C@H]3C[C@](C)(O)[C@H](N(C)C)[C@H](C)O3)[C@@H](OC4)[C@H](NC(=O)c3csc1n3)c1nc(cs1)C(=O)N2 (stereo not given in full)
MIC [1]: 0.5 µg/mL (≈ 0.325 µM) | solubility thermodynamic [10]: > 10000 µg/mL | MIC [2]: 0.12 µg/mL (≈ 0.078 µM) | MIC [3]: 0.25 µg/mL (≈ 0.163 µM) | ED50 [5]: 1.4 mg/kg

CO/C(C)=C1/NC(=O)[C@H]([C@@H](C)O)NC(=O)c2csc(n2)-c2cc(O)c(-c3nc(C(=O)NC(CN(C)CCC(=O)Nc4ccncc4)C(N)=O)cs3)nc2-c2csc(n2)[C@@H]2COC(=O)c3c4c5c(cccc5n3O)COC(=O)[C@@H](O[C@H]3C[C@](C)(O)[C@H](N(C)C)[C@H](C)O3)[C@@H](OC4)[C@H](NC(=O)c3csc1n3)c1nc(cs1)C(=O)N2 (stereo not given in full)
solubility thermodynamic [11]: > 3000 µg/mL | MIC [1]: 0.5 µg/mL (≈ 0.309 µM) | MIC [2]: 0.03 µg/mL (≈ 0.0186 µM) | MIC [3]: 0.5 µg/mL (≈ 0.309 µM) | ED50 [5]: 8.7 mg/kg

CO/C(C)=C1/NC(=O)[C@H]([C@@H](C)O)NC(=O)c2csc(n2)-c2cc(O)c(-c3nc(C(=O)NC(CN(C)C)C(N)=O)cs3)nc2-c2csc(n2)[C@@H]2COC(=O)c3c4c5c(cccc5n3O)COC(=O)[C@@H](O[C@H]3C[C@](C)(O)[C@H](N(C)C)[C@H](C)O3)[C@@H](OC4)[C@H](NC(=O)c3csc1n3)c1nc(cs1)C(=O)N2 (stereo not given in full)
MIC [1]: 0.12 µg/mL (≈ 0.0809 µM) | MIC [2]: 0.03 µg/mL (≈ 0.0202 µM) | MIC [3]: 0.06 µg/mL (≈ 0.0405 µM) | solubility thermodynamic [7]: > 10000 µg/mL | ED50 [5]: < 0.62 mg/kg
